Key:
human LoVo tumour cells = test: LoVo tumour model; format: in vivo, athymic nude mice; details: s.c. LoVo xenograft; ZD6126 200 mg/kg i.p. day 0; ZD1839 200 mg/kg/day p.o. days 0-13; 8 mice per group
Protocol: Athymic nude mice were implanted subcutaneously with 1.5×10^7 human LoVo tumour cells (obtained from European Collection of Cell Cultures, ECACC, CAMR, Salisbury, Wiltshire, SP4 0JG, UK; Cat. no. CCL 229) and tumours allowed to grow until they were approximately 9 mm in diameter. Groups of 8 tumour bearing mice were then treated as follows: • Control animals were dosed with PBSA 0.1 ml/10 g intraperitoneally (i.p.) single bolus on day 0 then about 2 h hours later 0.1% Tween 80 0.1 ml/10 g orally (p.o.) on day 0, followed by 0.1% Tween 80 0.1 ml/10 g p.o. once daily on days 1-13; • ZD6126 alone was dosed 200 mg/kg i.p. on day 0; • ZD1839 alone was dosed 200 mg/kg/day p.o. on days 0-13; and
(in the combination arm) ZD6126 200 mg/kg i.p. on day 0 then about 2 hours later ZD1839 200 mg/kg p.o. dosed on day 0, followed by ZD1839 200 mg/kg p.o. once daily on days 1-13. Tumour growth was measured twice weekly from calliper measurements of tumour diameter and the time taken for tumours to double in size compared using the Mann-Whitney U statistic.

A549 human NSCLC cells = test: A549 NSCLC xenograft model; details: for Tumour size: day 42 after tumour implantation, RT 4 Gy days 8, 9, 15, 16, ZD6126 150 mg/kg i.p. days 10, 17, ZD1839 2.5 mg per day p.o. days 7-11 and 14-18
Protocol: A549 NSCLC Xenograft Model
A human non-small cell lung cancer (NSCLC) xenograft model was used. Athymic nude mice were injected subcutaneously (s.c.) with A549 human NSCLC cells. Treatment began after 7 days when tumours were established (tumour volume=100-300 mm^3). […] Animals in all groups were sacrificed on day 42 after tumour cell implantation, when the control tumours reached approximately 2.0 cm^3.

tumour vasculature = details: reported in Proc. Am Assoc. Cancer Res. 2000; 41: 329; cited from earlier work

Row | SMILES | Growth delay in days for tumours to double in size (human LoVo tumour cells) | Tumour size (A549 human NSCLC cells) | effect on tumour vasculature (in words) (tumour vasculature) | inhibition of tumour growth (in words) (A549 human NSCLC cells; A549 xenograft, compared with control animals or single agents)
1 | COc1cc2ncnc(Nc3ccc(F)c(Cl)c3)c2cc1OCCCN1CCOCC1 [ZD1839, N-(3-chloro-4-fluorophenyl)-7-methoxy-6-(3-morpholinopropoxy)quinazolin-4-amine, reference compound] | 8.3 days; p < 0.01 | 1.41 ± 0.08 cm^3 S.D. | – | –
2 | COc1cc2c(c(OC)c1OC)-c1ccc(OP(=O)(O)O)cc1[C@@H](NC(C)=O)CC2 [ZD6126, N-acetylcolchinol-O-phosphate] | 3.6 days; p < 0.05 | 1.17 ± 0.10 cm^3 S.D. | selectively disrupts tumour vasculature leading to vessel occlusion and extensive tumour necrosis | marked inhibition of tumour growth

Reference: patent US20050215530A1, “Combination therapy for the treatment of cancer” (priority 2002, published 2005)
